In the supplement of paper PMC10307832:

Key:
Test in all cases: relative viability (nuclei count vs DMSO), 5 days (fraction); higher = more cells survive
[1] = compound: CC1=CC=C(C=C1)C(=O)CN2C3=C(CCCC3)SC2=N [Pifithrin_alpha] + CC(=O)Nc1cccc(-n2c(=O)n(C3CC3)c(=O)c3c(Nc4ccc(I)cc4F)n(C)c(=O)c(C)c32)c1 [Trametinib] (partner 0.02 µM)
How it was run: (§1)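 Medians of duplicate plates are given as relative viability. That measure is the nuclei count in treated wells divided by the count in vehicle wells. Counts were taken on 4× images of lung cancer cell lines in 1536-well plates, 5 days after pin-tool dosing the day after seeding with one drug alone or a fixed anchor-drug dose plus five library-drug doses (not always all listed) in √10 steps.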

[2] = compound: CC1=CC=C(C=C1)C(=O)CN2C3=C(CCCC3)SC2=N [Pifithrin_alpha] + C[C@@H](Oc1cc(-c2cnn(C3CCNCC3)c2)cnc1N)c1c(Cl)ccc(F)c1Cl [Crizotinib] (partner 1 µM)
How it was run: as §1

Axitinib + Pictilisib = compound: CNC(=O)c1ccccc1Sc1ccc2c(/C=C/c3ccccn3)n[nH]c2c1 [Axitinib] + CS(=O)(=O)N1CCN(Cc2cc3nc(-c4cccc5[nH]ncc45)nc(N4CCOCC4)c3s2)CC1 [Pictilisib] (partner 1 µM)
How it was run: as §1

Axitinib + Olaparib = compound: CNC(=O)c1ccccc1Sc1ccc2c(/C=C/c3ccccn3)n[nH]c2c1 [Axitinib] + O=C(c1cc(Cc2n[nH]c(=O)c3ccccc23)ccc1F)N1CCN(C(=O)C2CC2)CC1 [Olaparib] (partner 8 µM)
How it was run: as §1

Cell Line | relative viability ([1]; first compound 1 µM) | relative viability ([1]; first compound 3.162 µM) | relative viability ([1]; first compound 10 µM) | relative viability ([1]; first compound 100 µM) | relative viability ([2]; first compound 1 µM) | relative viability ([2]; first compound 3.162 µM) | relative viability ([2]; first compound 10 µM) | relative viability ([2]; first compound 100 µM) | relative viability (Axitinib + Pictilisib; first compound 0.005 µM) | relative viability (Axitinib + Pictilisib; first compound 0.01581 µM) | relative viability (Axitinib + Pictilisib; first compound 0.05 µM) | relative viability (Axitinib + Pictilisib; first compound 0.1581 µM) | relative viability (Axitinib + Pictilisib; first compound 0.5 µM) | relative viability (Axitinib + Olaparib; first compound 0.005 µM) | relative viability (Axitinib + Olaparib; first compound 0.01581 µM) | relative viability (Axitinib + Olaparib; first compound 0.05 µM) | relative viability (Axitinib + Olaparib; first compound 0.1581 µM) | relative viability (Axitinib + Olaparib; first compound 0.5 µM) | relative viability ([1]; first compound 31.62 µM) | relative viability ([2]; first compound 31.62 µM)
NCI-H1915 | 0.291 | 0.296 | 0.302 | 0.308 | 0.867 | 0.979 | 0.912 | 1.25 | 0.966 | 0.994 | 0.999 | 0.888 | 0.88 | 0.28 | 0.255 | 0.243 | 0.234 | 0.284 |  | 
HARA | 0.557 | 0.695 | 0.836 | 0.45 | 1.26 | 1.11 | 1.19 | 1.24 | 0.324 | 0.401 | 0.545 | 0.364 | 0.281 | 1.02 | 0.88 | 0.835 | 0.95 | 0.921 | 0.493 | 0.791
NCI-H1650 | 0.563 | 0.523 | 0.451 | 0.39 | 0.979 | 0.912 | 0.936 | 0.792 | 0.624 | 0.36 | 0.644 | 0.529 | 0.585 | 0.876 | 0.712 | 0.797 | 0.91 | 0.89 | 0.375 | 0.648
EMC-BAC-2 |  | 0.89 |  | 0.794 | 0.733 | 0.745 | 0.627 | 0.645 | 0.569 | 0.533 | 0.534 | 0.555 | 0.529 | 0.5 | 0.542 | 0.516 | 0.512 | 0.508 | 0.706 | 0.416
HCC-44 | 0.945 | 0.846 | 0.727 | 0.747 | 0.816 | 0.742 | 0.647 | 0.65 | 0.56 | 0.734 | 0.682 | 0.695 | 0.546 | 0.955 | 0.961 | 0.963 | 0.947 | 1 | 0.786 | 0.515
LOU-NH91 | 0.746 | 0.72 | 0.731 | 0.568 | 0.704 | 0.722 | 0.748 | 0.654 | 0.528 | 0.529 | 0.557 | 0.544 | 0.52 | 0.942 | 0.745 | 0.951 | 0.893 | 0.934 | 0.612 | 0.689
NCI-H3122 | 0.254 | 0.296 | 0.25 | 0.286 | 0.288 | 0.323 | 0.291 | 0.321 | 0.579 | 0.592 | 0.627 | 0.594 | 0.598 | 0.571 | 0.629 | 0.59 | 0.598 | 0.652 | 0.213 | 0.296
